# Results from patent US20050020576A1, “Kappa agonist compounds and pharmaceutical formulations thereof” (priority 1996, published 2005).
# Where “and” joins values, the source holds several entries; their conditions need not be identical. Equal values may be shown once.
# Assays:
# [1] = tested on: formalin-induced flinching; assay: animal or person; type: in vivo, male Sprague-Dawley rats; details: rat, in vivo
# [2] = target: T1, cloned human kappa receptor (Homo sapiens, UniProt P41145); assay: biochemical; type: binding; details: Ki, nM 3H-Diprenorphin
# [3] = target: T1, cloned human kappa receptor; assay: [3H]U69593 (agonist) binding to the cloned human kappa receptor; details: Ki, nM 3H-U-69,593
# T1 sequence (P41145 whole entry): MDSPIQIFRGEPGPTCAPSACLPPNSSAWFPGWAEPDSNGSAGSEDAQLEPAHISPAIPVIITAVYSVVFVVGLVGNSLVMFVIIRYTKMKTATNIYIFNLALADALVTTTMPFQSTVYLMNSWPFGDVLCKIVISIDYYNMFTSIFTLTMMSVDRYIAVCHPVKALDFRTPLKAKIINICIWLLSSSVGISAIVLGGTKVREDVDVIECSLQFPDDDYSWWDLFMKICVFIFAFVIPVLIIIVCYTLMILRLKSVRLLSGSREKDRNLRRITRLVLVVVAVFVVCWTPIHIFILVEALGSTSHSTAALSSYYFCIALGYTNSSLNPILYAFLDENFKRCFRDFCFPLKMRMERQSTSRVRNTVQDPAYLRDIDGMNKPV
compound,measurement,setting,value
"Cl.O=C(Cc1ccc(Cl)c(Cl)c1)N1CCN(Cc2ccccc2)C[C@H]1CN1CCCC1 [(R-1), (R)-4-(Phenylmethyl)-1-[(3,4-dichlorophenyl)acetyl]-2-[(1-pyrrolidinyl)methyl]piperazine hydrochloride]","Late Phase Formalin, % @ 300; i.paw",[1],53% @ 300
same,Ki,[2],57 nM and 38 nM
same,Ki,[3],9.3 nM
same,melting point,,168 to 170 °C
